In patent publication US10246411B2, “(Z)-3,4,5-trimethoxystyrylbenzenesulfonamides as potential anticancer agents” (COUNCIL OF SCIENTIFIC & INDUSTRIAL RESEARCH, priority 2014, dated 2019):
Like-named read-outs stand apart in the source and are kept apart here.

What was measured:
NCI-H522 = assay: In vitro cytotoxicity (NCI protocol, SRB), NCI-H522; conditions: Homo sapiens, NCI-H522, 48 h
MOLT-4 = assay: In vitro cytotoxicity (NCI protocol, SRB), MOLT-4; conditions: Homo sapiens, MOLT-4, 48 h
A549/ATCC = assay: In vitro cytotoxicity (NCI protocol, SRB), A549/ATCC; conditions: Homo sapiens, A549, 48 h
TK-10 = assay: In vitro cytotoxicity (NCI protocol, SRB), TK-10; conditions: Homo sapiens, TK-10, 48 h
NCI/ADR-RES = assay: In vitro cytotoxicity (NCI protocol, SRB), NCI/ADR-RES; conditions: Homo sapiens, 48 h
HOP-62 = assay: In vitro cytotoxicity (NCI protocol, SRB), HOP-62; conditions: Homo sapiens, HOP-62, 48 h
IGROV1 = assay: In vitro cytotoxicity (NCI protocol, SRB), IGROV1; conditions: Homo sapiens, IGROV-1, 48 h
OVCAR-4 = assay: In vitro cytotoxicity (NCI protocol, SRB), OVCAR-4; conditions: Homo sapiens, OVCAR-4, 48 h
HS 578T = assay: In vitro cytotoxicity (NCI protocol, SRB), HS 578T; conditions: Homo sapiens, 48 h
UO-31 = assay: In vitro cytotoxicity (NCI protocol, SRB), UO-31; conditions: Homo sapiens, UO-31, 48 h
U251 = assay: In vitro cytotoxicity (NCI protocol, SRB), U251; conditions: Homo sapiens, U-251, 48 h
SF-295 = assay: In vitro cytotoxicity (NCI protocol, SRB), SF-295; conditions: Homo sapiens, SF-295, 48 h
SW-620 = assay: In vitro cytotoxicity (NCI protocol, SRB), SW-620; conditions: Homo sapiens, SW-620, 48 h
HT29 = assay: In vitro cytotoxicity (NCI protocol, SRB), HT29; conditions: Homo sapiens, HT-29, 48 h
SNB -19 = assay: In vitro cytotoxicity (NCI protocol, SRB), SNB -19; conditions: Homo sapiens, SNB-19, 48 h
OVCAR-3 = assay: In vitro cytotoxicity (NCI protocol, SRB), OVCAR-3; conditions: Homo sapiens, OVCAR-3, 48 h
M14 = assay: In vitro cytotoxicity (NCI protocol, SRB), M14; conditions: Homo sapiens, M14, 48 h
RPMI-8226 = assay: In vitro cytotoxicity (NCI protocol, SRB), RPMI-8226; conditions: Homo sapiens, RPMI-8226, 48 h
PC-3 = assay: In vitro cytotoxicity (NCI protocol, SRB), PC-3; conditions: Homo sapiens, PC-3, 48 h
human tumor cell lines = assay: In vitro cytotoxicity (NCI protocol, SRB), whole panel / mean graph midpoints; assay type: cell-based; conditions: for GI50: Homo sapiens; for Log10GI50 mean graph mid point (MG_MID) / Log10LC50 mean graph mid point (MG_MID) / Log10TGI mean graph mid point (MG_MID): mean over human tumor cell lines
From the text: The mean graph midpoint values of Log10 TGI and Log10 LC50 as well as Log10 GI50 for compounds 17a, 17c, 13a, 13c and 12a is listed in Table-2. […] The mean graph midpoints of Log10 TGI and Log10 LC50 have shown similar pattern to the log10 GI50 mean graph mid points.

SK-MEL-5 = assay: In vitro cytotoxicity (NCI protocol, SRB), SK-MEL-5; conditions: Homo sapiens, SK-MEL-5, 48 h
CAKI-1 = assay: In vitro cytotoxicity (NCI protocol, SRB), CAKI-1; conditions: Homo sapiens, CAKI-1, 48 h
SK-MEL-28 = assay: In vitro cytotoxicity (NCI protocol, SRB), SK-MEL-28; conditions: Homo sapiens, SK-MEL-28, 48 h
UACC-257 = assay: In vitro cytotoxicity (NCI protocol, SRB), UACC-257; conditions: Homo sapiens, UACC-257, 48 h
SF-268 = assay: In vitro cytotoxicity (NCI protocol, SRB), SF-268; conditions: Homo sapiens, SF-268, 48 h
HCC-2998 = assay: In vitro cytotoxicity (NCI protocol, SRB), HCC-2998; conditions: Homo sapiens, HCC 2998, 48 h
A498 = assay: In vitro cytotoxicity (NCI protocol, SRB), A498; conditions: Homo sapiens, A498, 48 h
NCI-H460 = assay: In vitro cytotoxicity (NCI protocol, SRB), NCI-H460; conditions: Homo sapiens, NCI-H460, 48 h
OVCAR-5 = assay: In vitro cytotoxicity (NCI protocol, SRB), OVCAR-5; conditions: Homo sapiens, OVCAR-5, 48 h
MALME-3M = assay: In vitro cytotoxicity (NCI protocol, SRB), MALME-3M; conditions: Homo sapiens, 48 h
[1] = against fifty eight cell lines in nine cancer cell panels, read-out: GI50 values
[2] = against almost 50 above cancer cell lines
[3] = against all the cancer cell lines, read-out: GI50 values range

SMILES | GI50 (NCI-H522) [nM] | GI50 (MOLT-4) [nM] | GI50 (A549/ATCC) [nM] | GI50 (TK-10) [nM] | GI50 (NCI/ADR-RES) [nM] | GI50 (HOP-62) [nM] | GI50 (IGROV1) [nM] | GI50 (OVCAR-4) [nM] | GI50 (HS 578T) [nM] | GI50 (UO-31) [nM] | GI50 (U251) [nM] | GI50 (SF-295) [nM] | GI50 (SW-620) [nM] | GI50 (HT29) [nM] | GI50 (SNB -19) [nM] | GI50 (OVCAR-3) [nM] | GI50 (M14) [nM] | GI50 (RPMI-8226) [nM] | GI50 (PC-3) [nM] | GI50 (human tumor cell lines; [1]) [nM] | also measured
COc1cc(/C=C\c2cc(OC)c(OC)c(OC)c2)cc(NS(=O)(=O)c2ccc(Cl)cc2)c1OC [13c, (Z)-4-chloro-N-(2,3-dimethoxy-5-(3,4,5-trimethoxystyryl)phenyl)benzenesulfonamide] | 209 | 672 | 716 | 779 | 364 | 414 | 914 | 1530 | 351 | 696 | 461 | 319 | 343 | 348 | 745 | 364 | 391 | 387 | 395 | 20 to 50 | cytotoxicity (human tumor cell lines; [2]): significant cytotoxicity; Log10GI50 mean graph mid point (MG_MID) (human tumor cell lines): −6.27; Log10LC50 mean graph mid point (MG_MID) (human tumor cell lines): −4.03; Log10TGI mean graph mid point (MG_MID) (human tumor cell lines): −4.42; GI50 (SK-MEL-5): 297 nM; GI50 (CAKI-1): 374 nM; GI50 (SK-MEL-28): 1140 nM; GI50 (UACC-257): 12.5 µM; GI50 (SF-268): 1100 nM; GI50 (HCC-2998): 1980 nM; GI50 (A498): 179 nM; GI50 (NCI-H460): 364 nM; GI50 (OVCAR-5): 726 nM
COc1ccc(S(=O)(=O)Nc2c(/C=C\c3cc(OC)c(OC)c(OC)c3)ccc(OC)c2O)cc1 [17a, (Z)—N-(2-hydroxy-3-methoxy-6-(3,4,5-trimethoxystyryl)phenyl)-4-methoxybenzenesulfonamide] | 20.2 | 42.3 | 45.9 | 73.2 | 155 | 39.7 | 54 | 76.3 | 47 | 61.9 | 37.4 | 33.9 | 40.8 | 1400 | 60.2 | 33.9 | 31.3 | 46.9 | 40.8 | 20 to 50 | GI50 (MALME-3M): 1510 nM; GI50 (human tumor cell lines; [3]): 18 to 50 nM; GI50 (human tumor cell lines; against almost all tumor cell lines, read-out: GI50 values): < 50 nM; cytotoxicity (human tumor cell lines; [2]): significant cytotoxicity; Log10GI50 mean graph mid point (MG_MID) (human tumor cell lines): −7.17; Log10LC50 mean graph mid point (MG_MID) (human tumor cell lines): −4.05; Log10TGI mean graph mid point (MG_MID) (human tumor cell lines): −4.55; GI50 (SK-MEL-5): 36.3 nM; GI50 (CAKI-1): 51.6 nM; GI50 (SF-268): 83.9 nM; GI50 (HCC-2998): 31.6 nM; GI50 (A498): 18.8 nM; GI50 (NCI-H460): 36.8 nM; GI50 (OVCAR-5): 1020 nM
COc1ccc(/C=C\c2cc(OC)c(OC)c(OC)c2)c(NS(=O)(=O)c2ccc(Cl)cc2)c1O [17c, (Z)-4-chloro-N-(2-hydroxy-3-methoxy-6-(3,4,5-trimethoxystyryl)phenyl)benzenesulfonamide] | 84.8 | 31.5 | 270 | 998 | 263 | 671 | 379 | 97.2 | 292 | 73.9 | 287 | 256 | 69.4 | 2760 | 807 | 60.2 | 91.3 | 207 | 153 | 20 to 50 | cytotoxicity (human tumor cell lines): significant cytotoxicity; GI50 (human tumor cell lines; [3]): 18 to 50 nM; Log10GI50 mean graph mid point (MG_MID) (human tumor cell lines): −6.71; Log10LC50 mean graph mid point (MG_MID) (human tumor cell lines): −4.07; Log10TGI mean graph mid point (MG_MID) (human tumor cell lines): −4.66; GI50 (SK-MEL-5): 51 nM; GI50 (CAKI-1): 54.2 nM; GI50 (SK-MEL-28): 84.1 nM; GI50 (UACC-257): 14.2 µM; GI50 (SF-268): 380 nM; GI50 (HCC-2998): 429 nM; GI50 (A498): 22.9 nM; GI50 (NCI-H460): 316 nM; GI50 (OVCAR-5): 2860 nM
